Where “and” joins values, the source holds several entries; their conditions need not be identical. Identical values can stand only once.
Molecular target: isolated CBM40 from V. cholerae sialidase (Vibrio cholerae serotype O1, UniProt P0C6E9)
Settings: ITC, 25° C.; for n (number of binding sites): 10 mM HEPES pH7.4, 0.15M NaCl

Chain of isolated CBM40 from V. cholerae sialidase (P0C6E9 25-216): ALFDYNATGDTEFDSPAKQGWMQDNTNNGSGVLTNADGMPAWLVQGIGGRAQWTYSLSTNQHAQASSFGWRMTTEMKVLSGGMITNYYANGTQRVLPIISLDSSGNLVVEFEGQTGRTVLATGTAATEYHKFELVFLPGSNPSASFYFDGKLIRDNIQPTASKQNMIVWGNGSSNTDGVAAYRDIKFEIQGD

Row | SMILES | Ka | Kd | TΔS | ΔG | ΔH | n (number of binding sites)
1 | CC(=O)N[C@H]1[C@H]([C@H](O)[C@H](O)CO)O[C@@](O[C@H]2[C@@H](O)[C@@H](CO)O[C@@H](O[C@H]3[C@H](O)[C@@H](O)C(O)O[C@@H]3CO)[C@@H]2O)(C(=O)O)C[C@@H]1O (stereo partly drawn) [3′SL, 3′sialyllactose] | 5.48 ± 0.05 10^−4M | 18 µM | -9.8 kcal/mol | -6.5 kcal/mol | -16.3 ± 0.05 kcal/mol | 0.96 ± 0.002
2 | CC(=O)N[C@H]1[C@H]([C@H](O)[C@H](O)CO)O[C@@](O[C@H](CO)[C@@H](O)[C@@H]2O[C@@](O[C@H]3[C@@H](O)[C@@H](CO)O[C@@H](O[C@H]4[C@H](O)[C@@H](O)C(O)O[C@@H]4CO)[C@@H]3O)(C(=O)O)C[C@H](O)[C@H]2NC(C)=O)(C(=O)O)C[C@@H]1O (stereo partly drawn) [DSL, disialyllactose] | 10.2 ± 0.01 10^−4M | 9.8 µM | -5.7 kcal/mol | -6.8 kcal/mol | -12.5 kcal/mol and -12.5 ± 0.003 kcal/mol | 0.92 and 0.92 ± 0.001
3 | CC(=O)N[C@H]1[C@H](O[C@H]2[C@@H](O)[C@@H](CO)O[C@@H](O[C@@H]([C@H](O)[C@@H](O)C=O)[C@H](O)CO)[C@@H]2O)O[C@H](CO[C@]2(C(=O)O)C[C@H](O)[C@@H](NC(C)=O)[C@H]([C@H](O)[C@H](O)CO)O2)[C@@H](O)[C@@H]1O[C@@H]1O[C@H](CO)[C@H](O)[C@H](O[C@]2(C(=O)O)C[C@H](O)[C@@H](NC(C)=O)[C@H]([C@H](O)[C@H](O)CO)O2)[C@H]1O [DSLNT, disialyl-lacto-N-tetraose] | 7.8 ± 0.06 10^−4M | 13 µM | -17.3 kcal/mol | -6.7 kcal/mol | -24 kcal/mol and -24.0 ± 0.007 kcal/mol | 0.57 and 0.57 ± 0.001
4 | CC(=O)N[C@H]1[C@H]([C@H](O)[C@H](O)CO)O[C@@](OC[C@H]2O[C@@H](O[C@H]3[C@H](O)[C@@H](O)[C@H](O)O[C@@H]3CO)[C@H](O)[C@@H](O)[C@H]2O)(C(=O)O)C[C@@H]1O [6′SL, 6′sialyllactose] | 5.16 ± 0.03 10^−4M | 19 µM | -3.5 kcal/mol | -6.4 kcal/mol | -9.9 ± 0.002 kcal/mol | 1.02 ± 0.001
